Source: US20110039762A1, “TARGETED ANTIMICROBIAL MOIETIES” (C3 JIAN, INC., priority 2009, published 2011)
Entries after “also recorded” stand apart in the source; their conditions may differ. Ends that are not written are not given here.

Tests used:
[1] = test system: S. pneumoniae; assay: MIC (broth microdilution); assay type: cell-based, Streptococcus pneumoniae
Protocol: (§1) Typically, the in vitro antimicrobial activity of antimicrobial agents is tested using standard NCCLS bacterial inhibition assays, or MIC tests (see, National Committee on Clinical Laboratory Standards “Performance Standards for Antimicrobial Susceptibility Testing,” NCCLS Document M100-S5 Vol. 14, No. 16, December 1994; “Methods for dilution antimicrobial susceptibility test for bacteria that grow aerobically-Third Edition,” Approved Standard M7-A3, National Committee for Clinical Standards, Villanova, Pa.).
(§2) Briefly, ˜1×10^5 cfu/mL bacteria were diluted in TH (S. mutans), or Mueller-Hinton (MH) broth (all other organisms) and distributed to 96-well plates. Serially-diluted (2-fold) peptides were then added and the plates incubated at 37° C. for 18-24 h. […] All experiments were conducted 10 times.

[2] = test system: microorganisms; assay: Peptides having multiple activities (targeting/binding, antimicrobial, growth or phenotype altering)
Source text: In certain embodiments, peptides described herein can have multiple activities. Thus for example, a peptide can have both binding/targeting activity and antimicrobial activity. Such peptides can be used, e.g., in a chimeric construct, for any or all of these properties. Thus, for example, a peptide designated “B” in Table 8 can be used as a targeting peptide. If it is also designated G or M it can also be used for antimicrobial activity.

[3] = test system: microorganisms (e.g., bacteria, yeasts, fungi); assay: Targeting peptide binding to target microorganisms (Table 3); conditions: preferably 1x PBS; for Target(s): microorganism(s) the targeting peptide binds, peptide binding conducted in aqueous buffers varied by peptide solubility; for Target(s) (microorganisms bound by the targeting peptide): peptide binding in aqueous buffers varied by peptide solubility
[4] = test system: S. pneumoniae; assay: Kill or inhibit growth/proliferation; morphology, biofilm and growth disruption (Tables 5, 6); assay type: cell-based, Streptococcus pneumoniae; design: key: A: Peptide aggregates; B: Less hyphal formation; Clumps; Diffuse clumps and small polyps; F: Diffuse growth; H: Thin; I: Growth inhibition; Microcolony formation; Rippled; Small polyps; Thick; W: Halo formation on top, microlonies on bottom; further: test concentration or dose not given here
[5] = test system: S. epidermidis; assay: as above; assay type: cell-based, Staphylococcus epidermidis; design: key: A: Peptide aggregates; B: Less hyphal formation; Clumps; Diffuse clumps and small polyps; F: Diffuse growth; H: Thin; I: Growth inhibition; Microcolony formation; Rippled; Small polyps; Thick; W: Halo formation on top, microlonies on bottom; further: test concentration or dose not given here
[6] = test system: B. subtilis; assay: MIC (broth microdilution); assay type: cell-based, Bacillus subtilis
Protocol: as §1, §2

[7] = test system: B. subtilis; assay: Kill or inhibit growth/proliferation; morphology, biofilm and growth disruption (Tables 5, 6); assay type: cell-based, Bacillus subtilis; design: key: A: Peptide aggregates; B: Less hyphal formation; Clumps; Diffuse clumps and small polyps; F: Diffuse growth; H: Thin; I: Growth inhibition; Microcolony formation; Rippled; Small polyps; Thick; W: Halo formation on top, microlonies on bottom; further: test concentration or dose not given here
[8] = test system: A. niger; assay: MIC (broth microdilution); assay type: cell-based, Aspergillus niger
Protocol: as §1, §2

[9] = test system: MRSA; assay: Kill or inhibit growth/proliferation; morphology, biofilm and growth disruption (Tables 5, 6); assay type: cell-based, Methicillin-resistant Staphylococcus aureus; design: key: A: Peptide aggregates; B: Less hyphal formation; Clumps; Diffuse clumps and small polyps; F: Diffuse growth; H: Thin; I: Growth inhibition; Microcolony formation; Rippled; Small polyps; Thick; W: Halo formation on top, microlonies on bottom; further: test concentration or dose not given here
[10] = test system: E. faecalis; assay: as above; assay type: cell-based, Enterococcus faecalis; design: key: A: Peptide aggregates; B: Less hyphal formation; Clumps; Diffuse clumps and small polyps; F: Diffuse growth; H: Thin; I: Growth inhibition; Microcolony formation; Rippled; Small polyps; Thick; W: Halo formation on top, microlonies on bottom; further: test concentration or dose not given here
[11] = test system: E. coli; assay: as above; assay type: cell-based, Escherichia coli; design: key: A: Peptide aggregates; B: Less hyphal formation; Clumps; Diffuse clumps and small polyps; F: Diffuse growth; H: Thin; I: Growth inhibition; Microcolony formation; Rippled; Small polyps; Thick; W: Halo formation on top, microlonies on bottom; further: test concentration or dose not given here
[12] = test system: S. mutans; assay: as above; assay type: cell-based, Streptococcus mutans; design: key: A: Peptide aggregates; B: Less hyphal formation; Clumps; Diffuse clumps and small polyps; F: Diffuse growth; H: Thin; I: Growth inhibition; Microcolony formation; Rippled; Small polyps; Thick; W: Halo formation on top, microlonies on bottom; further: test concentration or dose not given here
[13] = test system: F. nucleatum; assay: as above; assay type: cell-based, Fusobacterium nucleatum; design: key: A: Peptide aggregates; B: Less hyphal formation; Clumps; Diffuse clumps and small polyps; F: Diffuse growth; H: Thin; I: Growth inhibition; Microcolony formation; Rippled; Small polyps; Thick; W: Halo formation on top, microlonies on bottom; further: test concentration or dose not given here
[14] = test system: C. albicans; assay: as above; assay type: cell-based, Candida albicans; design: key: A: Peptide aggregates; B: Less hyphal formation; Clumps; Diffuse clumps and small polyps; F: Diffuse growth; H: Thin; I: Growth inhibition; Microcolony formation; Rippled; Small polyps; Thick; W: Halo formation on top, microlonies on bottom; further: test concentration or dose not given here
[15] = test system: C. jejuni; assay: as above; assay type: cell-based, Campylobacter jejuni; design: key: A: Peptide aggregates; B: Less hyphal formation; Clumps; Diffuse clumps and small polyps; F: Diffuse growth; H: Thin; I: Growth inhibition; Microcolony formation; Rippled; Small polyps; Thick; W: Halo formation on top, microlonies on bottom; further: test concentration or dose not given here
[16] = test system: M. luteus; assay: as above; assay type: cell-based, Micrococcus luteus; design: key: A: Peptide aggregates; B: Less hyphal formation; Clumps; Diffuse clumps and small polyps; F: Diffuse growth; H: Thin; I: Growth inhibition; Microcolony formation; Rippled; Small polyps; Thick; W: Halo formation on top, microlonies on bottom; further: test concentration or dose not given here
[17] = test system: C. jeikeium; assay: as above; assay type: cell-based, Corynebacterium jeikeium; design: key: A: Peptide aggregates; B: Less hyphal formation; Clumps; Diffuse clumps and small polyps; F: Diffuse growth; H: Thin; I: Growth inhibition; Microcolony formation; Rippled; Small polyps; Thick; W: Halo formation on top, microlonies on bottom; further: test concentration or dose not given here

Substance | MIC [1] | Activities [2] | Target(s) [3] | Organism, effect [4] | Organism, effect (morphology, biofilm and growth disruption) [13] | Target(s) (microorganisms bound by the targeting peptide) [3] | other results
ASKQASKQASKQASKQASKQASRSLKNHLL [PF-523] | S. pneumoniae, 50 μM | B M | S. epidermidis; also recorded: M. luteus; also recorded: C. albicans; also recorded: S. pneumoniae; also recorded: C. jeikeium; also recorded: C. jejuni | – | – | – | –
CGKLLEQKNFFLKTR [PF-521] | S. pneumoniae, 50 μM | G B M | S. epidermidis; also recorded: E. coli; also recorded: P. aeruginosa; also recorded: S. pneumoniae; also recorded: E. faecalis | S. pneumoniae (H) | – | – | –
FQKPFTGEEVEDFQDDDEIPTII [PF-437] | S. pneumoniae, 50 μM | G M | – | S. pneumoniae (I) | – | – | –
GIVLIGLKLIPLLANVLR [PF-322] | – | G M | – | – | – | – | Organism, effect [5]: S. epidermidis (C); MIC [6]: B. subtilis, 50 μM; Organism, effect [7]: B. subtilis (H)
KFSDQIDKGQDALKDKLGDL [PF-525] | S. pneumoniae, 50 μM | G M | – | S. pneumoniae (H) | – | – | MIC [8]: A. niger, 50 μM
LGLTAGVAYAAQPTNQPTNQPTNQPTNQPTNQPTNQPRW-NH2 [PF-520] | S. pneumoniae, 50 μM | G B M | – | S. pneumoniae (M) | – | – | –
LVLRICTDLFTFIKWTIKQRKS [PF-497] | – | B M | S. mutans; also recorded: B. subtilis; also recorded: E. coli | – | – | – | MIC [6]: B. subtilis, 50 μM
PDAPRTCYHKPILAALSRIVVTDR [PF-524] | S. pneumoniae, 50 μM | G B M | S. epidermidis and E. coli and P. aeruginosa and C. albicans and MRSA and S. pneumoniae and E. faecalis and C. jeikeium | S. pneumoniae (M) | – | – | Organism, effect [9]: MRSA (C); Organism, effect [10]: E. faecalis (C); Organism, effect [11]: E. coli (M)
PF-C055: peptide having multiple activities (YNLSIYIYFLHTITIAGLITLPFII; Peptide with targeting and/or antimicrobial activity) | – | G B | – | – | F. nucleatum (T) | A. naeslundii; also recorded: F. nucleatum; also recorded: P. gingivalis; also recorded: S. mutans | Organism, effect (morphology, biofilm and growth disruption) [12]: S. mutans (I)
PF-C062: peptide having multiple activities (PLARATEVVATLFIICSLLLYLTR; Peptide with targeting and/or antimicrobial activity) | – | G B | – | – | F. nucleatum (T) | A. naeslundii; also recorded: F. nucleatum; also recorded: P. gingivalis; also recorded: S. mutans; also recorded: T. denticola | Organism, effect (morphology, biofilm and growth disruption) [12]: S. mutans (I)
PF-C131: peptide having multiple activities (QWIVAKREIRMHIYCHISVIHVIIFFG; Peptide with targeting and/or antimicrobial activity) | – | G B | – | – | F. nucleatum (T) | A. naeslundii; also recorded: F. nucleatum; also recorded: P. gingivalis; also recorded: S. mutans | Organism, effect (morphology, biofilm and growth disruption) [12]: S. mutans (F)
PF-C143: peptide having multiple activities (VVFGGGDRLV; Peptide with targeting and/or antimicrobial activity) | – | G B | – | – | F. nucleatum (C) | A. naeslundii; also recorded: F. nucleatum; also recorded: P. gingivalis; also recorded: S. mutans; also recorded: T. denticola | –
PF-C145: peptide having multiple activities (YGKESDP; Peptide with targeting and/or antimicrobial activity) | – | G B | – | – | F. nucleatum (C) | A. naeslundii; also recorded: F. nucleatum; also recorded: P. gingivalis; also recorded: S. mutans; also recorded: T. denticola | Organism, effect (morphology, biofilm and growth disruption) [12]: S. mutans (I)
PF-C181: peptide having multiple activities (KMRAGQVVFIYKLILVLLFYVLQKLFDLKKGCF; Peptide with targeting and/or antimicrobial activity) | – | G B | – | – | F. nucleatum (T) | P. gingivalis | –
PF-C291: peptide having multiple activities (HPFLTGTGCPLFLIFRLFFVKAYFSFTVF; Peptide with targeting and/or antimicrobial activity) | – | G B | – | – | F. nucleatum (T) | A. naeslundii; also recorded: F. nucleatum; also recorded: P. gingivalis; also recorded: S. mutans | Organism, effect (morphology, biofilm and growth disruption) [12]: S. mutans (F)
RRGCTERLRRMARRNAWDLYAEHFY [PF-148] | – | G B M | – | S. pneumoniae (R) | – | – | Organism, effect [14]: C. albicans (B); Organism, effect [15]: C. jejuni (H); Organism, effect [9]: MRSA (C); Organism, effect [5]: S. epidermidis (D); MIC [6]: B. subtilis, 50 μM; Organism, effect [16]: M. luteus (A); Organism, effect [17]: C. jeikeium (H); Organism, effect [7]: B. subtilis (I); MIC [8]: A. niger, 50 μM
SFMPEIQKNTIPTQMK [PF-512] | S. pneumoniae, 50 μM | G B M | S. pneumoniae; also recorded: C. jeikeium | S. pneumoniae (H) | – | – | –
VMQSLYVKPPLILVTKLAQQN [PF-511] | S. pneumoniae, 50 μM | G B M | E. coli; also recorded: P. aeruginosa; also recorded: S. pneumoniae; also recorded: C. jeikeium | S. pneumoniae (H) | – | – | –
VYSFLYVLVIVRKLLSMKKRIERL [PF-499] | – | B M | S. mutans; also recorded: E. coli | – | – | – | MIC [6]: B. subtilis, 50 μM
